In patent publication EP0121635A1, “3',5',-Diarabinosides, their preparation and their therapeutical application” (SYNTHELABO, priority 1982, dated 1984):

How the values were obtained:
[1] = tested on: tumeur ascitique d'Ehrlich; experiment: Development of Ehrlich ascites tumour in mice (survival); format: in vivo, Souris; settings: for Nombre d'animaux sans tumeur au 28ème jour: day 28, controls 0/12 and 0/5; for Nombre d'animaux sans tumeur au 28ème jour / % d'augmentation de survie (pour les animaux décédés): same regimen; for Durée de survie des souris: souris Swiss, 2 x 10^6 malignant cells i.p., 4 days; for % d'augmentation de survie (pour les animaux décédés): versus controls; for % d'augmentation: increase of survival versus controls
Procedure: Les composés de l'invention ont été soumis à des essais pharmacologiques montrant leur intérêt dans le domaine antitumoral. L'action des composés sur le développement de la tumeur ascitique d'Ehrlich chez la Souris a été observée.
Les essais se font sur des lots de 5 ou 6 souris Swiss de 12 à 15 g. Chaque animal reçoit 2 x 10^6 cellules malignes par voie péritonéale. Le traitement débute 16 h après l'inoculation et consiste en 2 injections par jour de 0,75 ml d'une solution de dinucléotide à 2 mg/ml dans le péritoine c'est-à-dire 3 mg par animal et par jour ou 200 mg/kg. La durée du traitement est de 4 jours.
Les dinucléotides,composés de l'invention, ont été testés de la manière indiquée.

virus Herpès = experiment: Herpes virus yield in treated cell cultures (TCID50 titre); format: cell-based; settings: untreated control harvest titre 10^5,625; concentration not given
Excerpt: L'activité des trois composés de l'invention Ara A-p-Ara A, Ara A-p-Ara C et Ara C-p-Ara A a également été démontrée sur le virus Herpès.
La récolte virale témoin (cellules non traitées) a un titre TCI D50 (tissue culture infecting dosis) de 10^5,625.
Les cultures traitées par les composés de l'invention ont les titres suivants • Ara A-p-Ara A TCID50 = 10^3,16 • ^Ara A^-p-Ara C TCID50 ^< 102 • Ara C-p-Ara A TCID50 ≤ 10^2,5

[2] = Tableau 1, dinucleotide 200 mg/kg per day i.p. in 2 injections, start 16 h after inoculation, controls 16,54 j (Ara A, Ara C) and 18 j (Ara A-p-Ara C)
[3] = Tableau 2, dinucleotide 200 mg/kg per day i.p., controls 14,67 j

SMILES: Nc1ccn([C@@H]2O[C@H](COP(=O)(O)O[C@H]3[C@H](O)[C@H](n4cnc5c(N)ncnc54)O[C@@H]3CO)[C@@H](O)[C@@H]2O)c(=O)n1 [Ara A-p-Ara C]
- Nombre d'animaux sans tumeur au 28ème jour ([1]; Tableau 1): 4/5
- Durée de survie des souris [1, 2]: > 36 J
- % d'augmentation de survie (pour les animaux décédés) ([1]; Tableau 1): > 100%
- TCID50 (titre of viral harvest of treated cultures) (virus Herpès): < 102

SMILES: Nc1ncnc2c1ncn2[C@@H]1O[C@H](COP(=O)(O)O[C@H]2[C@H](O)[C@H](n3cnc4c(N)ncnc43)O[C@@H]2CO)[C@@H](O)[C@@H]1O [Ara A-p-Ara A]
- % d'augmentation ([1]; Tableau 2): 44,3%
- Durée de survie des souris [1, 3]: 21,17 j

SMILES: Nc1ccn([C@@H]2O[C@H](CO)[C@@H](O)[C@@H]2O)c(=O)n1 [Ara C, 1-β-D-arabinofuranosyl-cytosine]
- Nombre d'animaux sans tumeur au 28ème jour ([1]; Tableau 1): 0
- Durée de survie des souris [1, 2]: 32 J
- % d'augmentation de survie (pour les animaux décédés) ([1]; Tableau 1): 94,4%

SMILES: Nc1ncnc2c1ncn2[C@@H]1O[C@H](CO)[C@@H](O)[C@@H]1O [Ara A, 9-β-D-arabinofuranosyl-adénine]
- Nombre d'animaux sans tumeur au 28ème jour ([1]; Tableau 1): 0
- Durée de survie des souris [1, 2]: 24,5 j
- % d'augmentation de survie (pour les animaux décédés) ([1]; Tableau 1): 48,5%
- % d'augmentation ([1]; Tableau 2): 39,75%
- Durée de survie des souris [1, 3]: 20,5 j
